Results: BindingDB's records for doi:10.1021/jm00087a005 (Nova Pharmaceutical, 1992)

Tests used:
Test in all cases: Potency at the sigma binding site was determined in radioligand
[1] = biological target: sigma receptor, [3H]DTG site (Cavia porcellus)
[2] = biological target: sigma receptor, [3H]-(+)-3-PPP site (Cavia porcellus)
[3] = biological target: sigma receptor, [3H]-(+)-3-PPP site (Cavia porcellus); remark: listed apart in the source

IC50 [1] [nM] | IC50 [2] [nM] | IC50 [3] [nM] | Structure (SMILES)
227 | 143 | – | CN(C)CCCCCCCCOc1ccc2oc(-c3ccccc3)cc(=O)c2c1
101 | 54 | – | O=c1cc(-c2ccccc2)oc2ccc(OCCCCCCN3CCCCC3)cc12
16 | – | 19 | O=c1cc(-c2ccccc2)oc2cc(OCCCCCCCN3CCC(O)CC3)ccc12
95 | 132 | – | O=c1cc(-c2ccc(F)cc2)oc2ccc(OCCCCCCN3CCC(O)CC3)cc12
254 | 332 | – | COc1ccc(-c2cc(=O)c3cc(OCCCCCCN4CCC(O)CC4)ccc3o2)cc1
239 | 95 | – | O=c1cc(C2CCCCC2)oc2ccc(OCCCCCCN3CCOCC3)cc12
130 | 123 | – | O=c1cc(-c2ccccc2)oc2ccc(OCCCN3CCC(O)CC3)cc12
26 | 38 | – | O=c1cc(C2CCCC2)oc2ccc(OCCCCCCN3CCCCC3)cc12
91 | – | 100 | CCN(CC)CCCCCCOc1ccc2oc(-c3ccccc3)cc(=O)c2c1
86 | 77 | – | O=c1cc(-c2ccccc2)oc2ccc(OCCCCCCN3CCCC(O)C3)cc12 (stereo not given)
297 | 341 | – | CN(C)CCCCCCCCCCOc1ccc2oc(-c3ccccc3)cc(=O)c2c1
194 | 210 | – | O=c1cc(-c2cccnc2)oc2ccc(OCCCCCCN3CCC(O)CC3)cc12
36 | – | 65 | O=c1cc(-c2ccccc2)oc2cccc(OCCCCCCCN3CCC(O)CC3)c12
165 | 188 | – | CN(C)CCCCCCCOc1ccc2oc(-c3ccccc3)cc(=O)c2c1
139 | 261 | – | CC(C)Cc1cc(=O)c2cc(OCCCCCN3CCC(O)CC3)ccc2o1
432 | – | 335 | CN(C)CCCCCCOc1ccc2oc(-c3ccccc3)cc(=O)c2c1
164 | 102 | – | CCOC(=O)C1CCN(CCCCCCOc2ccc3oc(-c4ccccc4)cc(=O)c3c2)CC1
88 | 46 | – | O=c1cc(C2CCCCC2)oc2ccc(OCCCCCCN3CCC(O)CC3)cc12

IC50 [1] [nM] | IC50 [2] [nM] | IC50 [3] [nM] | Structure (SMILES)
119 | – | 232 | O=c1cc(-c2cccs2)oc2ccc(OCCCCCCN3CCC(O)CC3)cc12
195 | 164 | – | O=c1cc(-c2ccc(Cl)cc2)oc2ccc(OCCCCCCN3CCC(O)CC3)cc12
159 | – | 308 | O=c1cc(-c2ccncc2)oc2ccc(OCCCCCCN3CCC(O)CC3)cc12
58 | – | – | O=c1cc(-c2ccccc2)oc2cccc(OCCCCN3CCC(O)CC3)c12
493 | 600 | – | COc1ccc(-c2cc(=O)c3cc(OCCCCCN4CCC(O)CC4)ccc3o2)cc1
47 | – | 29 | O=c1cc(-c2ccccc2Cl)oc2ccc(OCCCCCCN3CCC(O)CC3)cc12
334 | 202 | – | CN(C)CCCCCCCCCOc1ccc2oc(-c3ccccc3)cc(=O)c2c1
76 | 111 | – | COc1cccc(-c2cc(=O)c3cc(OCCCCCCN4CCC(O)CC4)ccc3o2)c1
52 | 75 | – | CN(CCCCCCOc1ccc2oc(-c3ccccc3)cc(=O)c2c1)Cc1ccccc1
119 | 192 | – | O=c1cc(-c2cccnc2)oc2ccc(OCCCCCCN3CCCCC3)cc12
125 | – | 91 | O=c1cc(-c2ccccc2)oc2cccc(OCCCN3CCC(O)CC3)c12
45 | 70 | – | O=c1cc(-c2ccccc2)oc2cc(OCCCCCCN3CCC(O)CC3)ccc12
100 | – | 121 | O=c1cc(-c2ccccc2)oc2ccc(OCCCCCCN3CCC(O)CC3)cc12
51 | 55 | – | O=c1cc(C2CCCC2)oc2ccc(OCCCCCCN3CCC(O)CC3)cc12
– | 14200 | – | O=c1cc(-c2ccccc2)oc2ccc(OCCCCCCN3CCNCC3c3ncccn3)cc12 (stereo not given)
590 | 40 | – | CN(C)CCOc1ccc2oc(-c3ccccc3)cc(=O)c2c1
720 | 400 | – | CN(C)CCCCOc1ccc2oc(-c3ccccc3)cc(=O)c2c1
55 | 32 | – | O=c1cc(C2CCCCC2)oc2ccc(OCCCCCCN3CCCCC3)cc12
